From US20240083861A1, “HSD17B13 INHIBITORS AND USES THEREOF” (FL2022-001, Inc., priority 2020, published 2024)

Target: T1, Recombinant human HSD17B13 enzyme (Homo sapiens, UniProt Q7Z5P4)
T1 sequence (Q7Z5P4 20-300): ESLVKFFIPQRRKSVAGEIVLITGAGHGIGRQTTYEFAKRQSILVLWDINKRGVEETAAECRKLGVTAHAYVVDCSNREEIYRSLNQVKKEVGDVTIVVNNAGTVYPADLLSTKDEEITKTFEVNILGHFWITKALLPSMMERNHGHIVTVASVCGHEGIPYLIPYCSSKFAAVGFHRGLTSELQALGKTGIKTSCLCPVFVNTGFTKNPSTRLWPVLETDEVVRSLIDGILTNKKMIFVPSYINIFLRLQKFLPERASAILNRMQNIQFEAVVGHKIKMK
Assay: HSD17b13 NAD(P)H-Glo biochemical assay
Settings: 50 uM estradiol, 1 mM NAD+, NAD(P)H-Glo luminescence; read-out: HSD17β13 IC50
Outline: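 Luminescent NAD(P)H-Glo read-out, taken after 1 hour at RT, measured cofactor reduction. Substrate and cofactor were estradiol at 50 uM and NAD+ at 1 mM final, reacted with the recombinant human enzyme for 3 hours at 37° C in 20 mM Tris pH7.4, 0.002% Tween-20, 0.02% BSA. Compound was pre-incubated with enzyme for 20 minutes at RT.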

Structure (SMILES)	IC50 [nM]
CN(c1cc2c(cn1)c(-c1cc(C(F)(F)F)c(F)c(O)c1F)nn2C)C1CCOC1 (centres unmarked) [Compound 9.27, 2,6-Difluoro-3-(1-methyl-6-(methyl(tetrahydrofuran-3-yl)amino)-1H-pyrazolo[4,3-c]pyridin-3-yl)-5-(trifluoromethyl)phenol]	100 to 1000
O=C(NC12CC(C1)C2)c1ccc2oc(-c3cc(O)cc(C(F)(F)F)c3)nc2c1 [Compound 2.01, N-(Bicyclo[1.1.1]pentan-1-yl)-2-(3-hydroxy-5-(trifluoromethyl)phenyl)benzo[d]oxa-zole-5-carboxamide]	< 100
Cn1nc(-c2cc(C(F)(F)F)c(F)c(O)c2F)c2cnc(N3CCOCC34CCC4)cc21 [Compound 9.35, 2,6-Difluoro-3-(1-methyl-6-(8-oxa-5-azaspiro[3.5]nonan-5-yl)-1H-pyrazolo[4,3-c]pyridin-3-yl)-5-(trifluoromethyl)phenol]	< 100
CS(=O)(=O)C1CN(c2cc3nc(-c4cc(O)c(F)c(F)c4)oc3cc2Cl)C1 [Compound 5.01, 5-(6-Chloro-5-(3-(methylsulfonyl)azetidine-1-yl)benzo[d]oxazol-2-yl)-2,3-difluorophenol]	100 to 1000
COCCn1nc(-c2cc(C(F)(F)F)c(F)c(O)c2F)c2ccc(N3CCOCC34CC4)nc21 [Compound 9.72, 2,6-Difluoro-3-(1-(2-methoxyethyl)-6-(7-oxa-4-azaspiro[2.5]octan-4-yl)-1H-pyrazolo[3,4-b]pyridin-3-yl)-5-(trifluoromethyl)phenol]	< 100
CC(C)N1CCN(c2cc3c(cn2)c(-c2cc(C(F)(F)F)c(F)c(O)c2F)nn3C)CC1=O [Compound 9.63, 4-(3-(2,4-Difluoro-3-hydroxy-5-(trifluoromethyl)phenyl)-1-methyl-1H-pyrazolo[4,3-c]pyridin-6-yl)-1-isopropylpiperazin-2-one]	< 100
Oc1ccc(-c2ccc3oc(-c4ccc(F)c(O)c4)nc3c2)cc1 [Compound 3.02, 2-Fluoro-5-(5-(4-hydroxyphenyl)benzo[d]oxazol-2-yl)phenol]	100 to 1000
Cc1cc(N(C)C2CCOCC2)cc2c1c(-c1cc(C(F)(F)F)c(F)c(O)c1F)nn2C [Compound 9.137, 3-(1,4-Dimethyl-6-(methyl(tetrahydro-2H-pyran-4-yl)amino)-1H-indazol-3-yl)-2,6-difluoro-5-(trifluoromethyl)phenol]	100 to 1000
Cn1nc(-c2cc(C(F)(F)F)c(F)c(O)c2F)c2cnc(N(Cc3ccccc3)C3CCOCC3)cc21 [Compound 9.123, 3-(6-(Benzyl(tetrahydro-2H-pyran-4-yl)amino)-1-methyl-1H-pyrazolo[4,3-c]pyridin-3-yl)-2,6-difluoro-5-(trifluoromethyl)phenol]	< 100
CN(c1cc2c(nn1)c(-c1cc(C(F)(F)F)c(F)c(O)c1F)nn2C)C1CCOCC1 [Compound 9.120, 2,6-Difluoro-3-(1-methyl-6-(methyl(tetrahydro-2H-pyran-4-yl)amino)-1H-pyrazolo[4,3-c]pyridazin-3-yl)-5-(trifluoromethyl)phenol]	100 to 1000
Oc1c(F)c(-c2nn(C3CCCOC3)c3nc(N4CCOCC45CC5)ccc23)cc(C(F)(F)F)c1F (centres unmarked) [Compound 9.71, 3-(6-(7-Oxa-4-azaspiro[2.5]octan-4-yl)-1-(tetrahydro-2H-pyran-3-yl)-1H-pyrazolo[3,4-b]pyridin-3-yl)-2,6-difluoro-5-(trifluoromethyl)phenol]	100 to 1000
CS(=O)(=O)N1CCN(C(=O)c2ccc3oc(-c4cc(O)c(F)c(F)c4)nc3c2)CC1 [Compound 1.04, (2-(3,4-Difluoro-5-hydroxyphenyl)benzo[d]oxazol-5-yl)(4-(methylsulfonyl)piperazin-1-yl)methanone]	1000 to 30000
Cn1nc(-c2cc(C(F)(F)F)c(F)c(O)c2F)c2cnc(N3CCN(S(C)(=O)=O)CC34CC4)cc21 [Compound 9.74, 2,6-Difluoro-3-(1-methyl-6-(7-(methylsulfonyl)-4,7-diazaspiro[2.5]octan-4-yl)-1H-pyrazolo[4,3-c]pyridin-3-yl)-5-(trifluoromethyl)phenol]	< 100
CN(c1cc(Cl)c2c(-c3cc(C(F)(F)F)c(F)c(O)c3F)nn(C)c2c1)C1CCOCC1 [Compound 9.127, 3-(4-Chloro-1-methyl-6-(methyl(tetrahydro-2H-pyran-4-yl)amino)-1H-indazol-3-yl)-2,6-difluoro-5-(trifluoromethyl)phenol]	100 to 1000
O=C(NC1CCCC1)c1ccc2oc(-c3cc(C(F)(F)F)c(F)c(O)c3F)nc2c1 [Compound 1.22, N-Cyclopentyl-2-(2,4-difluoro-3-hydroxy-5-(trifluoromethyl)phenyl)benzo[d]oxa-zole-5-carboxamide]	< 100
Cc1cc(-c2n[nH]c3cc(N4CCN(S(C)(=O)=O)CC4)ccc23)c(F)c(O)c1F [Compound 9.25, 2,6-Difluoro-3-methyl-5-(6-(4-(methylsulfonyl)piperazin-1-yl)-1H-indazol-3-yl)phenol]	100 to 1000
Cn1nc(-c2cc(C(F)(F)F)c(F)c(O)c2F)c2cnc(N3CCOC4(CCS(=O)(=O)CC4)C3)cc21 [Compound 9.88, 4-(3-(2,4-Difluoro-3-hydroxy-5-(trifluoromethyl)phenyl)-1-methyl-1H-pyrazolo[4,3-c]pyridin-6-yl)-1-oxa-9-thia-4-azaspiro[5.5]undecane 9,9-dioxide]	< 100

Other lines, results leading:

IC50 [nM]	Structure (SMILES)
< 100	Cn1nc(-c2cc(C(F)(F)F)c(F)c(O)c2F)c2cnc(N3CCC(O)(c4ccccn4)CC3)nc21 [Compound 18.96, 1-(3-(2,4-Difluoro-3-hydroxy-5-(trifluoromethyl)phenyl)-1-methyl-1H-pyrazolo[3,4-d]pyrimidin-6-yl)-4-(pyridin-2-y1)piperidin-4-ol]
1000 to 30000	Cn1nc(-c2cc(C(F)(F)F)c(F)c(O)c2F)c2cnc(N3CCOCC3C(=O)O)nc21 (centres unmarked) [Compound 18.38, 4-(3-(2,4-Difluoro-3-hydroxy-5-(trifluoromethyl)phenyl)-1-methyl-1H-pyrazolo[3,4-d]pyrimidin-6-yl)morpholine-3-carboxylic Acid]
100 to 1000	CN1CCN(c2ncc3c(-c4cc(C(F)(F)F)c(F)c(O)c4F)nn(C)c3n2)CC1 [Compound 18.72, 2,6-Difluoro-3-(1-methyl-6-(4-methylpiperazin-1-yl)-1H-pyrazolo[3,4-d]pyrimidin-3-y1)-5-(trifluoromethyl)phenol]
< 100	Cn1nc(-c2cc(C(F)(F)F)c(F)c(O)c2F)c2cnc(N3CCOC(c4cc[nH]n4)C3)nc21 (centres unmarked) [Compound 18.82, 3-(6-(2-(1H-Pyrazol-3-yl)morpholino)-1-methyl-1H-pyrazolo[3,4-d]pyrimidin-3-y1)-2,6-difluoro-5-(trifluoromethyl)phenol]
100 to 1000	Cn1nc(-c2cc(C(F)(F)F)c(F)c(O)c2F)c2cnc(N3[C@@H]4CNC[C@H]3COC4)nc21 [Compound 18.11, 3-(6-((1R,5S)-3-oxa-7,9-diazabicyclo[3.3.1]nonan-9-y1)-1-methyl-1H-pyrazolo[3,4-d]pyrimidin-3-y1)-2,6-difluoro-5-(trifluoromethyl)phenol]
< 100	Cn1nc(-c2cc(C(F)(F)F)c(F)c(O)c2F)c2cnc(N3CCOC(c4ccncc4)C3)nc21 (centres unmarked) [Compound 18.56, 2,6-Difluoro-3-(1-methyl-6-(2-(pyridin-4-y1)morpholino)-1H-pyrazolo[3,4-d]pyrimidin-3-y1)-5-(trifluoromethyl)phenol]
< 100	Cn1nc(-c2cc(C(F)(F)F)c(F)c(O)c2F)c2cnc(C3CCN(S(C)(=O)=O)CC3)nc21 [Compound 15.04, 2,6-Difluoro-3-(1-methyl-6-(1-(methylsulfony1)piperidin-4-y1)-1H-pyrazolo[3,4-d]pyrimidin-3-yl)-5-(trifluoromethyl)phenol]
100 to 1000	CN1CCC2(CC1)CN(c1ncc3c(-c4cc(C(F)(F)F)c(F)c(O)c4F)nn(C)c3n1)CCO2 [Compound 18.41, 2,6-Difluoro-3-(1-methyl-6-(9-methyl-1-oxa-4,9-diazaspiro[5.5]undecan-4-y1)-1H-pyrazolo[3,4-d]pyrimidin-3-y1)-5-(trifluoromethyl)phenol]
< 100	CN1CCN(c2ncc3c(-c4cc(C(F)(F)F)c(F)c(O)c4F)nn(C)c3n2)CC12CC2 [Compound 18.17, 2,6-Difluoro-3-(1-methyl-6-(4-methyl-4,7-diazaspiro[2.5]octan-7-y1)-1H-pyrazolo[3,4-d]pyrimidin-3-y1)-5-(trifluoromethyl)phenol]
< 100	Cn1nc(-c2cc(C(F)(F)F)c(F)c(O)c2F)c2cnc(N3CCC4(CC3)CNC4=O)nc21 [Compound 18.25, 7-(3-(2,4-Difluoro-3-hydroxy-5-(trifluoromethyl)phenyl)-1-methyl-1H-pyrazolo[3,4-d]pyrimidin-6-yl)-2,7-diazaspiro[3.5]nonan-1-one]
100 to 1000	Cn1nc(-c2cc(C(F)(F)F)c(F)c(O)c2F)c2cnc(N3CCO[C@@H](CO)C3)nc21 [Compound 18.131, (R)-2,6-Difluoro-3-(6-(2-(hydroxymethyl)morpholino)-1-methyl-1H-pyrazolo[3,4-d]pyrimidin-3-y1)-5-(trifluoromethyl)phenol]
< 100	COC1(CO)CCN(c2ncc3c(-c4cc(C(F)(F)F)c(F)c(O)c4F)nn(C)c3n2)CC1 [Compound 18.100, 2,6-Difluoro-3-(6-(4-(hydroxymethyl)-4-methoxypiperidin-1-y1)-1-methyl-1H-pyrazolo[3,4-d]pyrimidin-3-yl)-5-(trifluoromethyl)phenol]
